Results: patent publication US6908919B2, “Substituted polycyclic aryl and heteroaryl pyrazinones useful for selective inhibition of the coagulation cascade” (Pharmacia Corporation, priority 1999, dated 2005)

Columns and labels:
[1] = molecular target: Human factor Xa (Homo sapiens, UniProt P00742); experiment: Xa Assay; format: biochemical; set-up: purchased Enzyme Research Laboratories, South Bend Ind
[2] = molecular target: T1, recombinant soluble tissue factor and recombinant human factor VIIa (TF-VIIa) (Homo sapiens, UniProt P08709); experiment: TF-VIIa Assay; format: biochemical; settings: at 30 µM inhibitor
T1 construct: conversion of coagulation factor VII to VIIa by Xa; purchased American Diagnostica, Greenwich Conn; host or cells: VIIa purchased; soluble TF made in house in E. coli
T1 sequence (P08709 61-212 limits assumed): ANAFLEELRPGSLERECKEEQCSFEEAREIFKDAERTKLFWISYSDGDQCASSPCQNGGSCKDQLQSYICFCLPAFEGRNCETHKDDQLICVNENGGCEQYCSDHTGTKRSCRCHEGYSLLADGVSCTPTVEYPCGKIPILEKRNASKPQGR
T1 sequence (P08709 213-466 limits assumed): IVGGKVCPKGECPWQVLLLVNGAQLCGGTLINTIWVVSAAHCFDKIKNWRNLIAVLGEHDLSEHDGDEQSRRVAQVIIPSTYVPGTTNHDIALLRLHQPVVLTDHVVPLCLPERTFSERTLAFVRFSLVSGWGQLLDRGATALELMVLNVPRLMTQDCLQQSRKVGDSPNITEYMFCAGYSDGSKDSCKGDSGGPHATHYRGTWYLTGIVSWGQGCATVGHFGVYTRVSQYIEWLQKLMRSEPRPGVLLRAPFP
T1 sequence (P13726 33-251 partner limits assumed): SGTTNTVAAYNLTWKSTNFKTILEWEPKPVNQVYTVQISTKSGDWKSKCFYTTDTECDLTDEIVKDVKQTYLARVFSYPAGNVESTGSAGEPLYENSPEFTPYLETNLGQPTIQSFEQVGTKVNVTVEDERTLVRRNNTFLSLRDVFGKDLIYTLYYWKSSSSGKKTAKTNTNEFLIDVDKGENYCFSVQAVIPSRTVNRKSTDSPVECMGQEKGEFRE

Sequence of Human factor Xa (P00742 41-179 limits assumed): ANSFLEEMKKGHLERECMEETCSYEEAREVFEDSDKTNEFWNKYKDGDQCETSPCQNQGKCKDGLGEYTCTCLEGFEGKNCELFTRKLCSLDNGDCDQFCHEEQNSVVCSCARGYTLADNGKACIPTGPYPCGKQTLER
Sequence of Human factor Xa (P00742 235-488 limits assumed): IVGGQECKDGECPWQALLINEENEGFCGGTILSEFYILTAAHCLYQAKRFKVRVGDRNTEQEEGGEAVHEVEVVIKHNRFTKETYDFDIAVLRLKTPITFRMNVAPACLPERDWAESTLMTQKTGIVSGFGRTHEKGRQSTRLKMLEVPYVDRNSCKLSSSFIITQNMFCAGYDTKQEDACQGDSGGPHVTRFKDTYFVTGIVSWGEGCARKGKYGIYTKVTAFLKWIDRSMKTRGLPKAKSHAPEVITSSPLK

Structure (SMILES) | % Inhibition Factor Xa (30 µM) ([1]; at 30 µM inhibitor) | other results
N=C(N)c1ccc(CNC(=O)Cn2c(-c3ccccc3)c(Cl)nc(NCC(c3ccccc3)c3ccccc3)c2=O)cc1 [1507-09] | 13% | –
N=C(N)c1ccc(CNC(=O)Cn2c(-c3ccccc3)c(Cl)nc(NCCCc3ccccc3)c2=O)cc1 [1512-06] | 4% | –
N=C(N)c1ccc(CNC(=O)Cn2c(-c3ccsc3)c(Cl)nc(NCCc3ccccc3)c2=O)cc1 [Example 1517-13] | – | % Inhibition Factor Xa (30 µM) ([1]; at 30 µM): 0%
N=C(N)c1ccc(CNC(=O)Cn2c(-c3cccc(Cl)c3)c(Cl)nc(NCCc3cccc(Cl)c3)c2=O)cc1 [1471-30] | 41% | –
N=C(N)c1ccc(CNC(=O)Cn2c(-c3ccccc3)c(Cl)nc(NC3CCCc4ccccc43)c2=O)cc1 (stereo not drawn) [1507-16] | 18% | –
N=C(N)c1ccc(CNC(=O)Cn2c(-c3cccc(Cl)c3)c(Cl)nc(NCCc3ccncc3)c2=O)cc1 [1471-29] | 21% | –
N=C(N)c1ccc(CNC(=O)Cn2c(-c3ccccc3)c(Cl)nc(NCc3cc(F)cc(F)c3)c2=O)cc1 [1512-39] | 4% | –
CCc1c(Cl)nc(NCCc2cccnc2)c(=O)n1CC(=O)NCc1ccc(C(=N)N)cc1 [1471-64] | 2% | –
N=C(N)c1ccc(CNC(=O)Cn2c(-c3ccccc3)c(Cl)nc(NCCCCc3ccccc3)c2=O)cc1 [1507-43] | 21% | –
N=C(N)c1ccc(CNC(=O)Cn2c(-c3ccc(C(F)(F)F)cc3)c(Cl)nc(NC3CCC3)c2=O)cc1 [1515-20] | – | % Inhibition TF-VIIa (30 µM) [2]: 32%
CCCC(CCC)Nc1nc(Cl)c(-c2ccccc2)n(CC(=O)NCc2ccc(C(=N)N)cc2)c1=O [Example 1517-26] | – | % Inhibition Factor Xa (30 µM) ([1]; at 30 µM): 0%
N=C(N)c1ccc(CNC(=O)Cn2c(-c3ccccc3)c(Cl)nc(NCc3ccc(C(F)(F)F)cc3F)c2=O)cc1 [1512-26] | 5% | –
N=C(N)c1ccc(CNC(=O)Cn2c(-c3ccccc3)c(Cl)nc(NCc3c(F)cccc3F)c2=O)cc1 [1512-43] | 9% | –
Cc1c(Cl)nc(NCCc2ccccc2)c(=O)n1CC(=O)NCc1ccc(C(=N)N)cc1 [1471-7] | 4% | –
CCc1c(Cl)nc(NCCc2ccccc2)c(=O)n1CC(=O)NCc1ccc(C(=N)N)cc1 [1471-63] | 2% | –
CN1CCCC1CCNc1nc(Cl)c(-c2ccccc2)n(CC(=O)NCc2ccc(C(=N)N)cc2)c1=O (stereo not drawn) [1512-46] | 10% | –
N=C(N)c1ccc(CNC(=O)Cn2c(-c3ccccc3)c(Cl)nc(NC(c3ccccc3)c3ccccc3)c2=O)cc1 [1507-35] | 28% | –
CC(C)CCNc1nc(Cl)c(-c2ccccc2)n(CC(=O)NCc2ccc(C(=N)N)cc2)c1=O [Example 1517-40] | – | % Inhibition Factor Xa (30 µM) ([1]; at 30 µM): 0%
CCc1c(Cl)nc(NCCc2ccncc2)c(=O)n1CC(=O)NCc1ccc(C(=N)N)cc1 [1471-61] | 0% | –
N=C(N)c1ccc(CNC(=O)Cn2c(-c3cccc(Cl)c3)c(Cl)nc(NCCc3ccccc3)c2=O)cc1 [1471-31] | 17% | –
CCCCCNc1nc(Cl)c(-c2ccccc2)n(CC(=O)NCc2ccc(C(=N)N)cc2)c1=O [Example 1517-48] | – | % Inhibition Factor Xa (30 µM) ([1]; at 30 µM): 0%
CCc1c(Cl)nc(NCc2ccncc2)c(=O)n1CC(=O)NCc1ccc(C(=N)N)cc1 [1471-59] | 0% | –
C[C@@H](C(=O)NCc1ccc(C(=N)N)cc1)n1c(-c2ccccc2)c(Cl)nc(NCCc2ccccc2)c1=O [Example 1517-15] | – | % Inhibition Factor Xa (30 µM) ([1]; at 30 µM): 0%
N=C(N)c1ccc(CNC(=O)Cn2c(-c3ccc4c(c3)OCO4)c(Cl)nc(NCCc3cccc(Cl)c3)c2=O)cc1 [1471-46] | 21% | –
O=C(Cn1c(-c2ccc(Cl)cc2)c(Cl)nc(NCCc2cccc(Cl)c2)c1=O)NCCc1ccncc1 [Example E-0027] | – | % Inhibition Factor Xa (100 µM) ([1]; inhibitor at 100 µM): 0%

More lines, main results first:

% Inhibition Factor Xa (30 µM) ([1]; at 30 µM inhibitor) | Structure (SMILES) | other results
42% @ 30 | Cc1cccc(-c2cnc(NCCc3ccccc3)c(=O)n2CC(=O)NCc2ccc(C(=N)N)cc2)c1 [Example 85] | –
0% | N=C(N)c1ccc(CNC(=O)Cn2c(-c3ccsc3)c(Cl)nc(NCc3ccccc3)c2=O)cc1 [Example 1517-01] | –
26% @ 30 | N=C(N)c1ccc(CNC(=O)Cn2c(-c3cccc(N)c3)c(Cl)nc(NCCc3ccccc3)c2=O)cc1 [Example 86] | –
38% @ 30 | N=C(N)c1ccc(CNC(=O)Cn2c(-c3cccc(Cl)c3)c(Cl)nc(NCc3ccccc3)c2=O)cc1 [Example 23] | –
0% | Nc1n[nH]c2cc(CNC(=O)Cn3c(-c4ccccc4)cnc(NCCc4ccccc4)c3=O)ccc12 [Example 39] | –
